Measurements: EP4585588A1, “BENZIMIDAZOLE COMPOUND, AND PREPARATION METHOD THEREFOR AND USE THEREOF” (Suzhou Pharmavan Co., Ltd., priority 2022, dated 2024)

Key:
[1] = test system: Primary cardiomyocytes of suckling rats; test: Area measurement of cardiomyocytes after PE injury; type: cell-based; conditions: for Cell Area Hypertrophy Multiple (Mean±Standard Deviation) Compared with Control Wells: 48 h, 10 µM; for cardiomyocyte area compared with the PE group (result in words): 10 µM compound, PE 20 µM for 48 hours
Experimental: Primary cardiomyocytes of suckling rats were isolated and cultured and inoculated on a cell culture plate. A drug stock solution was taken and separately added to cell wells according to a certain dilution ratio, and a final concentration was 10 µM. After half hour of drug action, a phenylephrine (PE) stock solution was added, and a final concentration of PE was 20 µM. After 48 hours of PE action, cell samples were collected for real-time quantitative PCR assay or cell area measurement.
Separation and plating of cardiomyocytes of rats: a certain number of SPF suckling rats were taken and placed in a clean bench according to an actual requirement for the number of cells, thoracic cavities were opened by scissors, hearts were separated, and the hearts were cut into tissue fragments with sterilized surgical scissors; Collagenase Type II (manufacturer: Sigma, article No.: C2-28-100MG) was added to a D-HANKS balanced salt buffer to prepare a […] enzyme digestion solution, and the tissue fragments of hearts were continuously digested for three times in a 37 °C constant-temperature water bath box; about 2 mL of the enzyme digestion solution was added for the first time, a supernatant was discarded after digestion, centrifugation and precipitation of cardiomyocytes and tissue fragments, about 4 mL of the enzyme digestion solution was independently added for the second time and the third time to continue digestion, a supernatant was remained each time, DMEM containing 10% FBS with the same volume as the digestion solution in the supernatant was immediately added to neutralize digestive enzymes, the supernatants for the second time and the third time were combined and centrifuged, a supernatant was discarded, an appropriate amount of DMEM containing 10% FBS was added to resuspend the cardiomyocytes, the cardiomyocytes were inoculated in a 100 mm culture plate and subjected to differential adhesion in a constant-temperature cell incubator for 2 h, and a supernatant was taken for cell count.
Area measurement of cardiomyocytes of rats: a 24-well plate precoated with 1% gelatin was taken and plated at 1.0×10^3 cells/well, 500 µL of a 10% FBS+DMEM medium was contained in each well, and cells were cultured in a 37 °C constant-temperature cell incubator for 24 h; different compounds were independently prepared into a 100 mM mother liquor with DMSO and gradient diluted with a 10% FBS+DMEM medium to prepare a 10 µM final solution of the compound containing […]; the medium in the 24-well plate was discarded and replaced with a 500 µL/well medium containing a 10 µM compound, and three replicate wells and a negative control well were set for each compound; after 0.5 hours of drug action, PE (manufacturer: Meilun Biotechnology; article No.: MB1602) with a final concentration of 20 µM was added to each well, and no PE was added to the negative control wells; after 48 hours of PE action, at least five fields of view were randomly selected from each well under an inverted microscope (manufacturer: Nikon; model: Eclipse TS100), and the cell area data was calculated by Image J software; the area of the cells in the negative control wells was set to 1, the cell area hypertrophy multiples of the PE wells and each administration well were calculated separately, and statistical analysis was performed using the One-Way ANOVA method.
The cardiomyocyte area was directly measured and the differences between the groups were compared for verification. The cardiomyocytes were co-intervened with PE and drugs and placed under a microscope for direct observation, and images were taken. The cell area data was calculated using Image J software. […]

[2] = test system: Models of Heart Failure due to Pressure Overload of Mice; test: Pharmacodynamic test in mouse models of heart failure due to pressure overload (thoracic aorta ligation); type: in vivo, C57BL/6 mice; conditions: after four weeks of administration (nine weeks of modeling); for Ejection Fraction (Mean) of Heart: Table 6, model group 29.8%; for Ejection Fraction (Mean) of Heart / Ejection Fraction (Mean) of Ventriculus Sinister of Heart: 5 mg/kg intraperitoneal once a day for four consecutive weeks; for Ejection Fraction (Mean) of Ventriculus Sinister of Heart: Table 5, model group 28.6%; for effect on the cardiac contractile function (result in words): 5 mg/kg intraperitoneal once a day
Experimental: 1.1 Animals healthy C57BL/6 mice
Modeling by thoracic aorta ligation surgery: preoperative echocardiography was performed to exclude mice with abnormal cardiac functions; for mice with normal cardiac functions, anesthesia was performed, and the mice were anesthetized and then transferred into a small animal operating table and fixed; an open airway was established via endotracheal intubation, and anesthesia was maintained; taking the second rib as the center, the skin was cut along the sternum toward the first and third ribs to expose the connection between the second rib and the sternum; the second rib was cut to expose the aorta thoracic segment; the aortic arch was freed, a thin thread was inserted underneath, a thin needle was placed in parallel to the aortic arch for co-ligation; after ligation, the thin needle was withdrawn to observe the condition of the mice, and the mice were sutured layer by layer after stabilization; the mice were placed on the thermal insulation pad to keep warm, and after waking up, the mice were put back into the cage for daily feeding according to the activity.
After five weeks of modeling, echocardiography was performed on the mice to determine the ejection fractions of the hearts of the mice. When the ejection fraction decreased by about 50%, the ejection fraction met the experimental requirements, and the administration experiment started. Animals were grouped randomly and administered according to the ultrasound data, the echocardiography was performed every two weeks until week 9 ended, and pathological section analysis was performed.
The results were expressed using mean±standard error, data analysis was performed using GraphPad Prism statistical software, and the comparison was analyzed using a t-test. P < 0.05 was determined that there was a difference with statistical significance, otherwise P was determined that there was no significant difference.

[3] = test system: myosin heavy chain β (β-MHC); conditions: 48 h, 10 µM
Experimental: Separation and plating of cardiomyocytes of rats: a certain number of SPF suckling rats were taken and placed in a clean bench according to an actual requirement for the number of cells, thoracic cavities were opened by scissors, hearts were separated, and the hearts were cut into tissue fragments with sterilized surgical scissors; Collagenase Type II (manufacturer: Sigma, article No.: C2-28-100MG) was added to a D-HANKS balanced salt buffer to prepare a 5 µg/mL enzyme digestion solution, and the tissue fragments of hearts were continuously digested for three times in a 37 °C constant-temperature water bath box; about 2 mL of the enzyme digestion solution was added for the first time, a supernatant was discarded after digestion, centrifugation and precipitation of cardiomyocytes and tissue fragments, about 4 mL of the enzyme digestion solution was independently added for the second time and the third time to continue digestion, a supernatant was remained each time, DMEM containing 10% FBS with the same volume as the digestion solution in the supernatant was immediately added to neutralize digestive enzymes, the supernatants for the second time and the third time were combined and centrifuged, a supernatant was discarded, an appropriate amount of DMEM containing 10% FBS was added to resuspend the cardiomyocytes, the cardiomyocytes were inoculated in a 100 mm culture plate and subjected to differential adhesion in a constant-temperature cell incubator for 2 h, and a supernatant was taken for cell count.
A 24-well plate precoated with 1% gelatin was taken and plated at 1×10^5 cells/well, 500 µL of a 10% FBS+DMEM medium was contained in each well, and cells were cultured in a 37 °C constant-temperature cell incubator for 24 h. Different compounds were independently prepared into a 100 mM mother liquor with DMSO and gradient diluted with a 10% FBS+DMEM medium to prepare a 10 µM final solution of the compound containing 0.5% DMSO. The medium in the 24-well plate was discarded and replaced with a 500 µL/well medium containing a 10 µM compound, and three replicate wells and a negative control well were set for each compound. After 0.5 hours of drug action, PE (manufacturer: Meilun Biotechnology; article No.: MB1602) with a final concentration of 20 µM was added to each well, and no PE was added to the negative control wells; after 48 hours of PE action, sample detection was performed.
Expression levels of genes related to cardiomyocyte hypertrophy was analyzed via real-time quantitative PCR detection of mRNA level of atrial natriuretic peptide (ANP) and myosin heavy chain β (β-MHC). The steps include extraction of total RNA of cells, reverse transcription synthesis of cDNA and real-time quantitative PCR assay.
Based on real-time quantitative PCR detection of an mRNA level of ANP of cardiomyocytes, a drug with a potential of anti-cardiomyocyte hypertrophy was preliminarily screened and verified with an mRNA level of another hypertrophy gene β-MHC using a statistical method One-way ANOVA and statistical software GraphPad Prism.

| SMILES | Cell Area Hypertrophy Multiple (Mean±Standard Deviation) Compared with Control Wells [1] | Ejection Fraction (Mean) of Heart [2] [%] | Ejection Fraction (Mean) of Ventriculus Sinister of Heart [2] [%] | Mean (real-time quantitative PCR validation results of cardiomyocyte β-MHC) [3] | cardiomyocyte area compared with the PE group (result in words) [1] | effect on the cardiac contractile function (result in words) [2] |
| --- | --- | --- | --- | --- | --- | --- |
| CC(O)c1ccc(F)cc1-c1ccc2[nH]cnc2c1 (centres unmarked) [Formula II-73, 1-(4-fluoro-2-(1H-benzimidazol-5-yl)phenyl)ethane-1-ol] | 1.17±0.16 | 40.5 | – | – | – | – |
| Cc1nc2cc(-c3cc(C(N)=O)cc(F)c3O)ccc2[nH]1 [Formula I-5, 3-fluoro-4-hydroxy-5-(2-methyl-1H-benzimidazol-5-yl)benzamide] | 1.50±0.15 | – | 39.7 | 1.25 | – | – |
| OCc1ccc(F)cc1-c1ccc2[nH]cnc2c1 [Formula II-121, (4-fluoro-2-(1H-benzimidazol-5-yl)phenyl)methanol] | 1.48±0.09 | 42.2 | – | 1.25 | – | – |
| Cn1cnc2cc(-c3cc(F)ccc3O)ccc21 [Formula I-24-B, 4-fluoro-2-(1-methyl-1H-benzimidazol-5-yl)phenol, reference compound] | 1.81±0.20 | – | 27.2 | – | no apparent improvement effect | no apparent improvement effect |
| COc1ccc(F)cc1-c1ccc2[nH]cnc2c1 [Formula I-24-A, 5-(5-fluoro-2-methoxyphenyl)-1H-benzimidazole, reference compound] | 1.77±0.11 | – | 29.4 | – | no apparent improvement effect | no apparent improvement effect |
| Oc1ccccc1-c1cc(F)c2[nH]cnc2c1 [Formula I-24-C, 2-(7-fluoro-1H-benzimidazol-5-yl)phenol, reference compound] | 1.95±0.08 | – | 30.7 | – | no apparent improvement effect | no apparent improvement effect |
| Cc1nc2cc(-c3cc(F)ccc3C(C)(C)O)ccc2[nH]1 [Formula II-1, 2-(4-fluoro-2-(2-methyl-1H-benzimidazol-5-yl)phenyl)propane-2-ol] | 1.39±0.30 | 38.7 | – | 1.32 | – | – |
| CCCc1cc(C#N)c(CO)c(-c2ccc3[nH]cnc3c2)c1 [Formula II-144, 2-(hydroxymethyl)-3-(1H-benzimidazol-5-yl)-5-propylbenzonitrile] | 1.12±0.13 | 41.5 | – | 1.39 | – | – |
| Cc1nc2cc(-c3cc(C(=O)O)ccc3O)ccc2[nH]1 [Formula I-48, 4-hydroxy-3-(2-methyl-1H-benzimidazol-5-yl)benzoic acid] | 1.06±0.08 | – | 37.2 | 1.58 | – | – |
| Cc1nc2cc(-c3cc(F)cc(C#N)c3C(C)(C)O)ccc2[nH]1 [Formula II-3, 5-fluoro-2-(2-hydroxypropan-2-yl)-3-(2-methyl-1H-benzimidazol-5-yl)benzonitrile] | 1.28±0.10 | 40.1 | – | 1.28 | – | – |
| Cc1nc2cc(-c3cc(C(=O)N(C)C)ccc3C(C)(C)O)ccc2[nH]1 [Formula II-7, 4-(2-hydroxypropan-2-yl)-N,N-dimethyl-3-(2-methyl-1H-benzimidazol-5-yl)benzamide] | 1.14±0.14 | 39.6 | – | 1.15 | – | – |
| Cc1nc2cc(-c3cc(F)cc(F)c3O)ccc2[nH]1 [Formula I-2, 2,4-difluoro-6-(2-methyl-1H-benzimidazol-5-yl)phenol] | 1.18±0.16 | – | 38.3 | 1.21 | – | – |
| Cc1nc2cc(-c3cc(F)ccc3O)ccc2[nH]1 [Formula I-1, 4-fluoro-2-(2-methyl-1H-benzimidazol-5-yl)phenol] | 1.42±0.16 | – | 37.2 | 1.21 | – | – |
| CCCc1cc(C#N)c(C(C)O)c(-c2ccc3[nH]cnc3c2)c1 (centres unmarked) [Formula II-96, 2-(1-hydroxyethyl)-3-(1H-benzimidazol-5-yl)-5-propylbenzonitrile] | 1.49±0.10 | 36.8 | – | 1.38 | – | – |
| CCCc1cc(C#N)c(C(C)(C)O)c(-c2ccc3nc[nH]c3c2)c1 [Formula II-48] | 1.07±0.20 | 41.4 | – | – | – | – |
| COC(=O)c1ccc(CO)c(-c2ccc3[nH]cnc3c2)c1 [Formula II-133, methyl 4-(hydroxymethyl)-3-(1H-benzimidazol-5-yl) benzoate] | – | – | – | 1.46 | – | – |
| C=CCc1cc(C#N)c(C(C)O)c(-c2ccc3[nH]cnc3c2)c1 (centres unmarked) [Formula II-90, 5-allyl-2-(1-hydroxyethyl)-3-(1H-benzimidazol-5-yl)benzonitrile] | – | – | – | 1.27 | – | – |
| Oc1ccc(F)cc1-c1ccc2[nH]cnc2c1 [Formula I-24, 4-fluoro-2-(1H-benzimidazol-5-yl)phenol] | 1.36±0.12 | – | 40.0 | – | – | – |
